Measured values reported in US9162988B2, “Therapeutic or prophylactic agent for allergic dermatitis” (Toray Industries, Inc., priority 2007, dated 2015).
Counter-ions that a name gives are not always drawn.

What was measured:
BLAB/c mouse = experiment: Inhibitory effect on skin swelling response in mouse allergic dermatitis model; type: in vivo; conditions: IgE anti-DNP sensitized mouse, DNFB-induced; 50 mg/kg orally before the induction; 24 hours after administration
Procedure: This method was carried out in accordance with the literature “Inflamm. Res., 47, 506-511 (1998)”.
To each BLAB/c mouse (female, 7 weeks old, JAPAN CHARLES RIVER), mouse IgE anti-DNP antibody (2.5 mg/kg, SEIKAGAKU CORPORATION) was intravenously administered to passively sensitize the mouse. Twenty four hours later, 20 μL of 0.38% 2,4-dinitrofluorobenzene (DNFB, SIGMA) dissolved in acetone:olive oil (4:1) was applied to the auricle of the sensitized mouse to induce inflammation. The thickness of the auricle was measured with time till 24 hours after the induction with Digimatic Indicator (Mitutoyo), and the ear swelling ratio was calculated according to the following equation: Ear Swelling Ratio (%)=(A−B)/B×100
A: Thickness of the right auricle after the induction
B: Thickness of the right auricle before the induction
Each test compound was dissolved in phosphate buffered saline and orally administered at a dose of 50 mg/kg before the induction.

Jurkat cells = experiment: Inhibitory effect on leukocyte functions: adhesion of Jurkat cells to ligand-expressing cells or ligand-immobilized plate; type: cell-based; conditions: Homo sapiens, 0.5 h, read-out: IC50 (concentration at which the number of adherent cells is reduced by 50%)
Procedure: Jurkat cells which are a cell line originated from human acute T cell lymphoma were allowed to react with BCECF-AM at 37° C. for 20 minutes to fluorescently label the cells. The fluorescently labelled Jurkat cells were allowed to react with ligand-expressing cells or with a ligand-immobilized plate at 37° C. for 30 minutes. After removing non-adherent cells by washing, 1% NP40 was added to lyse the adherent cells, and fluorescence intensity was measured with Cytofluor 2300 (Millipore). From the obtained fluorescence intensity, the number of adherent cells was calculated. Each test compound was reacted with the Jurkat cells before the beginning of the adhesion reaction. In Table 18, the IC50 of each compound (i.e. the concentration at which the number of adherent cells is reduced by 50%) is shown.

SMILES | Inhibition ratio of the ear swelling (swelling response of the auricle) (BLAB/c mouse) [%] | IC50 (Jurkat cells) [nM]
COC1(c2ccc(/C=C/C[C@H](NC(=O)c3c(Cl)cccc3Cl)C(=O)O)cc2)CCOCC1 [Example 77, (S,E)-2-(2,6-Dichlorobenzamido)-5-[4-(4-methoxytetrahydropyran-4-yl)-phenyl]pent-4-enoic acid] | 85.8 | 
CN(c1ccc(/C=C/C[C@H](NC(=O)c2c(Cl)cccc2Cl)C(=O)[O-])cc1)c1ncccn1.[Na+] [Example 81, (S,E)-2-(2,6-Dichlorobenzamido)-5-[4-(methyl-pyrimidin-2-ylamino)phenyl]pent-4-enoic acid sodium salt] | 97.9 | 
CN(c1ccc(/C=C/C[C@H](NC(=O)c2c(Cl)cccc2Cl)C(=O)O)cc1)c1ncccn1 [Example 80, (S,E)-2-(2,6-Dichlorobenzamido)-5-[4-(methyl-pyrimidin-2-ylamino)phenyl]pent-4-enoic acid] | 86.3 | 
COCCOc1ccc(/C=C/CC(NC(=O)c2ccc(CNS(=O)(=O)c3cc(Cl)cc(Cl)c3)cc2)C(=O)[O-])cc1.[Na+] (centres unmarked) [(XXII), (E)-2-(4-((3,5-dichlorophenylsulfonamide)methyl)benzamide)-5-(4-(2-methoxyethoxy)phenyl)pent-4-enoic acid sodium salt, reference compound] | 2.3 | 
COC1(c2ccc(/C=C/C[C@H](NC(=O)c3c(Cl)cccc3Cl)C(=O)[O-])cc2)CCOCC1.[Na+] [Example 78, (S,E)-2-(2,6-Dichlorobenzamido)-5-[4-(4-methoxytetrahydropyran-4-yl)-phenyl]pent-4-enoic acid sodium salt] | 62.5 | 
CC(C)CN(c1ccc(/C=C/CC(NC(=O)c2c(Cl)cccc2Cl)C(=O)O)cc1)c1ncccn1 (centres unmarked) [Example 55, (E)-2-(2,6-Dichlorobenzamido)-5-[4-(isobutyl-pyrimidin-2-ylamino)phenyl]pent-4-enoic acid sodium salt] |  | 420
CC(C)N(c1ccc(/C=C/C[C@H](NC(=O)c2c(Cl)cccc2Cl)C(=O)O)cc1)c1ncccn1 [Example 83, (S,E)-2-(2,6-Dichlorobenzamido)-5-[4-(isopropyl-pyrimidin-2-ylamino)phenyl]pent-4-enoic acid] | 57.4 | 
CN(c1ccc(/C=C/CC(NC(=O)c2c(Cl)cccc2Cl)C(=O)O)cc1)c1ncccn1 (centres unmarked) [Example 22, (E)-2-(2,6-Dichlorobenzamido)-5-[4-(methyl-pyrimidin-2-ylamino)phenyl]pent-4-enoic acid] | 84.7 | 
CCOC1(c2ccc(/C=C/CC(NC(=O)c3c(Cl)cccc3Cl)C(=O)O)cc2)CCOCC1 (centres unmarked) [Example 6, (E)-2-(2,6-Dichlorobenzamido)-5-[4-(4-ethoxytetrahydropyran-4-yl)-phenyl]pent-4-enoic acid] | 91.2 | 
CC(C)N(c1ccc(/C=C/CC(NC(=O)c2c(Cl)cccc2Cl)C(=O)O)cc1)c1ncccn1 (centres unmarked) [Example 28, (E)-2-(2,6-Dichlorobenzamido)-5-[4-(isopropyl-pyrimidin-2-ylamino)phenyl]pent-4-enoic acid] | 98.5 | 
COC1(c2ccc(/C=C/CC(NC(=O)c3c(Cl)cccc3Cl)C(=O)O)cc2)CCOCC1 (centres unmarked) [Example 4, (E)-2-(2,6-Dichlorobenzamido)-5-[4-(4-methoxytetrahydropyran-4-yl)-phenyl]pent-4-enoic acid] | 79.8 | 
O=C(NC(C/C=C/c1ccc(N(CC2CC2)c2ncccn2)cc1)C(=O)O)c1c(Cl)cccc1Cl (centres unmarked) [Example 53, (E)-5-[4-(Cyclopropylmethyl-pyrimidin-2-ylamino)phenyl]-2-(2,6-dichlorobenzamido)pent-4-enoic acid sodium salt] |  | 120
CC(C)N(c1ccc(/C=C/C[C@H](NC(=O)c2c(Cl)cccc2Cl)C(=O)[O-])cc1)c1ncccn1.[Na+] [Example 84, (S,E)-2-(2,6-Dichlorobenzamido)-5-[4-(isopropyl-pyrimidin-2-ylamino)phenyl]pent-4-enoic acid sodium salt] | 66.9 | 
CCCCN(c1ccc(/C=C/CC(NC(=O)c2c(Cl)cccc2Cl)C(=O)O)cc1)c1ncccn1 (centres unmarked) [Example 37, (E)-5-(4-Butyl-pyrimidin-2-yl-amino)-phenyl]-2-(2,6-dichlorobenzamido)-pent-4-enoic acid sodium salt] |  | 160
